Values quoted from earlier work in patent US12648914B2, “Injectable sustained release composition and method of using the same for treating inflammation in joints and pain associated therewith” (priority 2013, dated 2026).

How the values were obtained:
[1] = reported, Möllmann et al. 1998, after inhaled administration
[2] = human subjects, 40 mg

CCC(=O)O[C@]1(C(=O)SCF)[C@H](C)C[C@H]2[C@@H]3C[C@H](F)C4=CC(=O)C=C[C@]4(C)[C@@]3(F)[C@@H](O)C[C@@]21C [fluticasone propionate]
EC50 [1]: 0.007 to 0.03 ng/mL

CC(C)(C)CC(=O)OCC(=O)[C@@]12OC(C)(C)O[C@@H]1C[C@H]1[C@@H]3CCC4=CC(=O)C=C[C@]4(C)[C@@]3(F)[C@@H](O)C[C@@]12C [triamcinolone hexacetonide]
release profile after intra-articular administration [2]: significant initial burst followed by rapid decline
